The record followed here is ChEMBL document CHEMBL5649166, “RIP3 induces apoptosis independent of pronecrotic kinase activity” (Mol Cell, 2014).

The target of assay [1] is Serine/threonine-protein kinase PAK 3 (Homo sapiens) (UniProt O75914). As to the kind of experiment: Inhibition of human PAK3 using RRRLSFAEPG as substrate at 1 uM in presence of 32P-ATP by Hotspot assay relative to control; values are per cent of control.
Assay [2] addresses T1, Muscle, skeletal receptor tyrosine-protein kinase (Homo sapiens) (UniProt O15146).
T1 sequence (whole entry): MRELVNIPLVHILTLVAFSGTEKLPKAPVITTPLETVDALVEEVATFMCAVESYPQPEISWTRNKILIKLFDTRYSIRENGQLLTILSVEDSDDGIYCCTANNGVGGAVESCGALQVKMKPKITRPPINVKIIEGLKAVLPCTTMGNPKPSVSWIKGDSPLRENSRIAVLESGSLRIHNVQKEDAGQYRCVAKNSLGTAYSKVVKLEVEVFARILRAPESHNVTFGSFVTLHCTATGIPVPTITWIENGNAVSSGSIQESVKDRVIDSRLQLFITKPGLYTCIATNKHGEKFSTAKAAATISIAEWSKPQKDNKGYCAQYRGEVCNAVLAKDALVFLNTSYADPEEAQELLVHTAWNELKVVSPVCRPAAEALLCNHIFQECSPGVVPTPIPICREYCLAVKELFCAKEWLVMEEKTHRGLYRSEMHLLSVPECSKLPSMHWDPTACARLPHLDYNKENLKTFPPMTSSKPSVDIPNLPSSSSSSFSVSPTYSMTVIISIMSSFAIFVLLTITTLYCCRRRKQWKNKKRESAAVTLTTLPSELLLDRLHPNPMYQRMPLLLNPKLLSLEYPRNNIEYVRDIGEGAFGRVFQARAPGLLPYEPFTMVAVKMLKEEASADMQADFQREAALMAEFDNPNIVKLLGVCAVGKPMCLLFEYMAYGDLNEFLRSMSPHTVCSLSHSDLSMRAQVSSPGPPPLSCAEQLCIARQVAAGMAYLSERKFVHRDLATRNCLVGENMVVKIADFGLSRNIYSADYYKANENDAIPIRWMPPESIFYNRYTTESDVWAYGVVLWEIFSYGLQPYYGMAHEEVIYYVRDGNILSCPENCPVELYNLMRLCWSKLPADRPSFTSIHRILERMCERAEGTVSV
As to the kind of experiment: Inhibition of human MUSK using myelin basic protein as substrate at 1 uM in presence of 32P-ATP by Hotspot assay relative to control; values are per cent of control.

In assay [3] the target is Casein kinase I isoform delta (Homo sapiens) (UniProt P48730). The assay is described as follows: Inhibition of human CK1d using KRRRAL[pS]VASLPGL as substrate at 1 uM in presence of 32P-ATP by Hotspot assay relative to control; values are per cent of control.
In assay [4] the target is Serine/threonine-protein kinase N1 (Homo sapiens) (UniProt Q16512). The assay is described as follows: Inhibition of human PKN1/PRK1 using KKLNRTLSVA as substrate at 1 uM in presence of 32P-ATP by Hotspot assay relative to control; values are per cent of control.
In assay [5] the target is Calcium/calmodulin-dependent protein kinase type 1 (Homo sapiens) (UniProt Q14012). The assay is described as follows: Inhibition of human CAMK1a using KKALRRQETVDAL as substrate at 1 uM in presence of 32P-ATP by Hotspot assay relative to control; values are per cent of control.
In assay [6] the target is T2, Tyrosine-protein kinase receptor TYRO3 (Homo sapiens) (UniProt Q06418).
T2 sequence (whole entry): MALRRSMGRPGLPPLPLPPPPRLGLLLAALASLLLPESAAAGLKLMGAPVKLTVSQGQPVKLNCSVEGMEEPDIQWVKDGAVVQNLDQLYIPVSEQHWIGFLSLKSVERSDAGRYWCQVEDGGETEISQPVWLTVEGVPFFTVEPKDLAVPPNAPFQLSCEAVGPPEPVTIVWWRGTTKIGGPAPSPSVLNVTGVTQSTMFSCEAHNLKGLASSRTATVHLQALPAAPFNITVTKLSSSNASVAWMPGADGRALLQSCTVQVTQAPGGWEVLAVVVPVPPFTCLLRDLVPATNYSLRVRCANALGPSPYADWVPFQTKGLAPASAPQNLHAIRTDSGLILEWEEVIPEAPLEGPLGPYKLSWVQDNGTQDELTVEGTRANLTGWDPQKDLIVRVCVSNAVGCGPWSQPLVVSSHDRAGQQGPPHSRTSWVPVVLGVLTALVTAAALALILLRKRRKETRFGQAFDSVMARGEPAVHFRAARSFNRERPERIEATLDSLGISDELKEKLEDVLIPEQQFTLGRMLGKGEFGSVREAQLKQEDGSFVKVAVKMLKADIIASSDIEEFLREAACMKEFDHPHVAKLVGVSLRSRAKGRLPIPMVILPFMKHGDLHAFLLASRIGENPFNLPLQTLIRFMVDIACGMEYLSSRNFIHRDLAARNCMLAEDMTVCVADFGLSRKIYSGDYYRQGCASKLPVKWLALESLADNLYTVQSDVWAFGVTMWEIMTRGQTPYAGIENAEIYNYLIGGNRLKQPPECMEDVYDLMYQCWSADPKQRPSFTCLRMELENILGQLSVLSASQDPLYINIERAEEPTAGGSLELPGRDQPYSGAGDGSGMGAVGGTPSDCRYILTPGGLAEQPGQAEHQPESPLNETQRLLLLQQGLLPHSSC
As to the kind of experiment: Inhibition of human TYRO3/SKY using poly[Glu:Tyr] (4:1) as substrate at 1 uM in presence of 32P-ATP by Hotspot assay relative to control; values are per cent of control.

In assay [7] the target is Aurora kinase B (Homo sapiens) (UniProt Q96GD4). As to the kind of experiment: Inhibition of human Aurora B using H-LRRASLG as substrate at 1 uM in presence of 32P-ATP by Hotspot assay relative to control; values are per cent of control.
Assay [8] has as its target Vascular endothelial growth factor receptor 3 (Homo sapiens) (UniProt P35916). The assay is described as follows: Inhibition of human FLT4/VEGFR3 using poly[Glu:Tyr] (4:1) as substrate at 1 uM in presence of 32P-ATP by Hotspot assay relative to control; values are per cent of control.

Chain of Serine/threonine-protein kinase N1 (Homo sapiens) (Q16512 2-942 limits assumed): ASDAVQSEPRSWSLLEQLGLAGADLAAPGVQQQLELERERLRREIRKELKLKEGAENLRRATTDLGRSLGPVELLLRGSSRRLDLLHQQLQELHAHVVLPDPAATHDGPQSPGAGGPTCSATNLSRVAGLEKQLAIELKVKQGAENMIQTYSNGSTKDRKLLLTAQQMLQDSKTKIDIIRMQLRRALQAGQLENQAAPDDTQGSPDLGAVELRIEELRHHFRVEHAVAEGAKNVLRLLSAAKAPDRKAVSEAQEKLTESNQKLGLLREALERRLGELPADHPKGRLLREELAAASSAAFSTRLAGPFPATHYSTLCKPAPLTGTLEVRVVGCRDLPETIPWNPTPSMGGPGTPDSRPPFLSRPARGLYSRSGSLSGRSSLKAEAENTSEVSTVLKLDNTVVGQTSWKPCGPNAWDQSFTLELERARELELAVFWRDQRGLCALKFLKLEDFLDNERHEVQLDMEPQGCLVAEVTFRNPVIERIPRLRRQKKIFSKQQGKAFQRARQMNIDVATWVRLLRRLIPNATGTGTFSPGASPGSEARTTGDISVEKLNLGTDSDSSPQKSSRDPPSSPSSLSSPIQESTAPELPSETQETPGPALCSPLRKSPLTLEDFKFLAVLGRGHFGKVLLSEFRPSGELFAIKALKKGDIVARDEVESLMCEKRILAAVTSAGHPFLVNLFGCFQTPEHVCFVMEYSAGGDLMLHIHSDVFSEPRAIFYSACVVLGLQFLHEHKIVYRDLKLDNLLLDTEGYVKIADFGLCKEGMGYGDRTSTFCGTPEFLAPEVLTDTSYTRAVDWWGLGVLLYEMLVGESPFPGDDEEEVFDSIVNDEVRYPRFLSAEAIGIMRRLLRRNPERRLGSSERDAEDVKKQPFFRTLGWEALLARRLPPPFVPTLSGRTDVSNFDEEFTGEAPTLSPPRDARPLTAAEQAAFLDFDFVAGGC
Chain of Calcium/calmodulin-dependent protein kinase type 1 (Homo sapiens) (Q14012 whole entry, looked up): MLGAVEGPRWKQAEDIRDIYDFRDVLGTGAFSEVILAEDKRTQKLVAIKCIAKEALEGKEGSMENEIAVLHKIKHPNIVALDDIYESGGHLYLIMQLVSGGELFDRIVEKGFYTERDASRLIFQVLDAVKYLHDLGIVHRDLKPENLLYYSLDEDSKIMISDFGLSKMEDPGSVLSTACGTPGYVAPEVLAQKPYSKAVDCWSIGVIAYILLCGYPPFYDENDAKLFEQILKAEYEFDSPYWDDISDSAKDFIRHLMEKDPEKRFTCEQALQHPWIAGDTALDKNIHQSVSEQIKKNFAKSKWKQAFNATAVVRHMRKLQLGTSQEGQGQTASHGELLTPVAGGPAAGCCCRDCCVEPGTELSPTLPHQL
Chain of Casein kinase I isoform delta (Homo sapiens) (P48730 whole entry, looked up, canonical isoform): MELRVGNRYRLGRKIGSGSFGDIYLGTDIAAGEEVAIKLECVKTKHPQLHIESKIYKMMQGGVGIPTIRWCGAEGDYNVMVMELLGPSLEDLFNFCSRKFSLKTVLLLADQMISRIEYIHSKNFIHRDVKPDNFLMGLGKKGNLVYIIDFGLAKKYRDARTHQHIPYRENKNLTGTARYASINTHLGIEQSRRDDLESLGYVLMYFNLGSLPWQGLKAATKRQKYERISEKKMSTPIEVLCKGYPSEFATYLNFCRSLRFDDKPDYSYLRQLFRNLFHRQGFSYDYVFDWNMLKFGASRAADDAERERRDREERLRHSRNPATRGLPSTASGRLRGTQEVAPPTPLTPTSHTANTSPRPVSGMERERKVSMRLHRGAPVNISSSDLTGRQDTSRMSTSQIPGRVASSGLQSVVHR
Chain of Serine/threonine-protein kinase PAK 3 (Homo sapiens) (O75914 whole entry, looked up): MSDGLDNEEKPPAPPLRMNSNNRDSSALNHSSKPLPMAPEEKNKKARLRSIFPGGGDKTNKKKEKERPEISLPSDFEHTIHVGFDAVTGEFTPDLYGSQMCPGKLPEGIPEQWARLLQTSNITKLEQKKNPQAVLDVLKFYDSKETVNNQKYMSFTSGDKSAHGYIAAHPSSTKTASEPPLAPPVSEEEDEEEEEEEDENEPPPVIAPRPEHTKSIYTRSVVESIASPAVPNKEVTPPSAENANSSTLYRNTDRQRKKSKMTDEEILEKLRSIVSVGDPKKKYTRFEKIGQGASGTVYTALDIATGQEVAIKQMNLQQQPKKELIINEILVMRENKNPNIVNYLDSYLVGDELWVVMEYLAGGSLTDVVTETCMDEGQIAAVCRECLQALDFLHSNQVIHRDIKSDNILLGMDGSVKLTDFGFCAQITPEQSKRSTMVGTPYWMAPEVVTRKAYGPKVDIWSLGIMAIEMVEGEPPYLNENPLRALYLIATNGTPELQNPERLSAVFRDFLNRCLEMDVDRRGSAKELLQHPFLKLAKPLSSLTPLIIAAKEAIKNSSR
Chain of Aurora kinase B (Homo sapiens) (Q96GD4 whole entry): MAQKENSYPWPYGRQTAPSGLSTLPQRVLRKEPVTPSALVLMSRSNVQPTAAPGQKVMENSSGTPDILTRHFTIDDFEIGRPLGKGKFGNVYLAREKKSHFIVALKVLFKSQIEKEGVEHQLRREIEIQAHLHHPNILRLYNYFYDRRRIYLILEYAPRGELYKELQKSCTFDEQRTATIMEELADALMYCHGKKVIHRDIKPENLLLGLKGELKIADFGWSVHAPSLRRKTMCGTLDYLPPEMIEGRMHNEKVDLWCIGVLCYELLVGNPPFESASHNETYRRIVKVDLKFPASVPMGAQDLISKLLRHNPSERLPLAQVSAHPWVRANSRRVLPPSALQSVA
Chain of Vascular endothelial growth factor receptor 3 (Homo sapiens) (P35916 whole entry): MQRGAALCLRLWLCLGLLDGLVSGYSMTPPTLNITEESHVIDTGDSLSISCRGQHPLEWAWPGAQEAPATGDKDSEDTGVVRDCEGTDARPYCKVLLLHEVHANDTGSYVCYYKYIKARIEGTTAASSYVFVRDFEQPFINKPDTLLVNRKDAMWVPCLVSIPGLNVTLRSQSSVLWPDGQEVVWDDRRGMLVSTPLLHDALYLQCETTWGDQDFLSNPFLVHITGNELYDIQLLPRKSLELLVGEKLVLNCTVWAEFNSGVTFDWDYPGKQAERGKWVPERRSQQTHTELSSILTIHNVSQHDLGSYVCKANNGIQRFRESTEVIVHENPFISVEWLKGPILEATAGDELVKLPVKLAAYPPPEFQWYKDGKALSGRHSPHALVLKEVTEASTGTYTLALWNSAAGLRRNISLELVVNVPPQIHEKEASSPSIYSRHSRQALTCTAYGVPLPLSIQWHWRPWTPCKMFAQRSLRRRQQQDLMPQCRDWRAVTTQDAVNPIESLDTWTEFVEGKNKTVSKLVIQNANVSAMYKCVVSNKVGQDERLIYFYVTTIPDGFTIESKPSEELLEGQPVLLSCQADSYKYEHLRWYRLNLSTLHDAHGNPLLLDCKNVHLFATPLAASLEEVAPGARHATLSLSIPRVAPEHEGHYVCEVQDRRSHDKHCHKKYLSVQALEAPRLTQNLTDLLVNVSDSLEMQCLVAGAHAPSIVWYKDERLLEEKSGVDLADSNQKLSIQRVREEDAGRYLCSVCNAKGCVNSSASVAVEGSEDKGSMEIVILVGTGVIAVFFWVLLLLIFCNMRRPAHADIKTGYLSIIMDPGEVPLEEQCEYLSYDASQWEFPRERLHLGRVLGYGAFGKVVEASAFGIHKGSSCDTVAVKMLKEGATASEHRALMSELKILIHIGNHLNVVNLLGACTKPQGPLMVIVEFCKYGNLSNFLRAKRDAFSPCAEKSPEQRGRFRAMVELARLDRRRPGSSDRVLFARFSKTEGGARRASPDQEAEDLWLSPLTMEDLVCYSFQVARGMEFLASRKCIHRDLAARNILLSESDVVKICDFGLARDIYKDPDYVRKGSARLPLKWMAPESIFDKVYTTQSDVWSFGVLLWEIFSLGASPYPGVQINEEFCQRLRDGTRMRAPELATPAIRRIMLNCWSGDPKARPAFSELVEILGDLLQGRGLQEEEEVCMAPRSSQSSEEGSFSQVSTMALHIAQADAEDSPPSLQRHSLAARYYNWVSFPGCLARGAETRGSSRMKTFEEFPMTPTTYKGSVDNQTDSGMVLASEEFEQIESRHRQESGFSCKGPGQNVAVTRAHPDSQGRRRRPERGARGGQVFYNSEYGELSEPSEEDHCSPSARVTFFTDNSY

As to `CNC(=O)c1ccc2c(c1)ncn2-c1ccc(CC(=O)OC(C)(C)C)cc1`, the residual activity (commonly the signal under treatment as a percentage of the control signal) was 105% in assay [1]; 103% in assay [2]; 101% in assay [3]; 97.7% in assay [4]; 95% in assay [5]; 99.3% in assay [6]. In addition, the residual activity in assay [7] was determined as 82.1%; in assay [8], 78.8%.
For the molecule `Cc1cc(-c2cnc(N)c3c(-c4ccc5scnc5c4)csc23)n(C)n1`, the residual activity in assay [1] is 96.6%; in assay [2], 105%; in assay [3], 84.6%; in assay [4], 96.7%; in assay [5] it was 97.4%; in assay [6], 100%. For the same molecule, the residual activity in assay [7] turned out to be 89.8%; in assay [8] it was 103%.
As for `CC(C)S(=O)(=O)c1ccc2nccc(Nc3ccc4scnc4c3)c2c1`, the residual activity in assay [1] is 97.8%; in assay [2] it was 98.1%; in assay [3], 104%; in assay [4] it was 95.3%; in assay [5] it was 92.1%; in assay [6], 84.6%. Besides, the residual activity in assay [7] was found to be 97.5%; in assay [8], 83.1%.
